Source: patent US9993494B2, “Compositions and methods for treating fibrotic disease” (eFFECTOR Therapeutics, Inc., priority 2014, dated 2018)

Tested on: normal human lung fibroblasts
Test: Ribosomal profiling: translational efficiency in TGFβ-treated fibroblasts
Assay type: cell-based
Outline: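 Cells lysed on ice after a cold PBS wash containing cycloheximide. Ribosome-protected fragments and total mRNA were prepared with the ARTseq kit and sequenced by RNA-Seq. Reads were trimmed, mapped to the human genome and counted uniquely over coding regions per gene, with low-count genes excluded before differential translational-efficiency analysis.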

SMILES: CC(C)n1nc(-c2cc3cc(O)ccc3[nH]2)c2c(N)ncnc21 [PP242]
- renormalizing the translational profile of RHOBTB3 (ENSG00000164292, TGFβ-treated fibroblasts): − (− = <0.9)
- renormalizing the translational profile of HCN1 (ENSG00000164588, TGFβ-treated fibroblasts): − (− = <0.9)
- renormalizing the translational profile of RPL36AL (ENSG00000165502, TGFβ-treated fibroblasts): − (− = <0.9)
- renormalizing the translational profile of RPL27A (ENSG00000166441, TGFβ-treated fibroblasts): − (− = <0.9)
- renormalizing the translational profile of RP11-382A20.3.1 (ENSG00000166503, TGFβ-treated fibroblasts): − (− = <0.9)
- renormalizing the translational profile of ANKDD1A (ENSG00000166839, TGFβ-treated fibroblasts): + (+ = 0.9 to 1.5)
- renormalizing the translational profile of RPL13 (ENSG00000167526, TGFβ-treated fibroblasts): − (− = <0.9)
- renormalizing the translational profile of EEF2 (ENSG00000167658, TGFβ-treated fibroblasts): + (+ = 0.9 to 1.5)
- renormalizing the translational profile of CA5B (ENSG00000169239, TGFβ-treated fibroblasts): + (+ = 0.9 to 1.5)
- renormalizing the translational profile of MURC (ENSG00000170681, TGFβ-treated fibroblasts): − (− = <0.9)
- renormalizing the translational profile of HTRA3 (ENSG00000170801, TGFβ-treated fibroblasts): − (− = <0.9)
- renormalizing the translational profile of PDE7B (ENSG00000171408, TGFβ-treated fibroblasts): − (− = <0.9)
- renormalizing the translational profile of LPAR3 (ENSG00000171517, TGFβ-treated fibroblasts): − (− = <0.9)
- renormalizing the translational profile of CTPS (ENSG00000171793, TGFβ-treated fibroblasts): − (− = <0.9)
- renormalizing the translational profile of QARS (ENSG00000172053, TGFβ-treated fibroblasts): − (− = <0.9)
- renormalizing the translational profile of RPL38 (ENSG00000172809, TGFβ-treated fibroblasts): − (− = <0.9)
- renormalizing the translational profile of MRPL45 (ENSG00000174100, TGFβ-treated fibroblasts): + (+ = 0.9 to 1.5)
- renormalizing the translational profile of RPL4 (ENSG00000174444, TGFβ-treated fibroblasts): − (− = <0.9)
- renormalizing the translational profile of RPL15 (ENSG00000174748, TGFβ-treated fibroblasts): − (− = <0.9)
- renormalizing the translational profile of DES (ENSG00000175084, TGFβ-treated fibroblasts): − (− = <0.9)
- renormalizing the translational profile of EIF3F (ENSG00000175390, TGFβ-treated fibroblasts): − (− = <0.9)
- renormalizing the translational profile of CLCF1 (ENSG00000175505, TGFβ-treated fibroblasts): − (− = <0.9)
- renormalizing the translational profile of AMIGO3 (ENSG00000176020, TGFβ-treated fibroblasts): − (− = <0.9)
- renormalizing the translational profile of C14orf49 (ENSG00000176438, TGFβ-treated fibroblasts): − (− = <0.9)
- renormalizing the translational profile of RPLP2 (ENSG00000177600, TGFβ-treated fibroblasts): − (− = <0.9)
- renormalizing the translational profile of IMPDH2 (ENSG00000178035, TGFβ-treated fibroblasts): − (− = <0.9)
- renormalizing the translational profile of DNAJC22 (ENSG00000178401, TGFβ-treated fibroblasts): + (+ = 0.9 to 1.5)
- renormalizing the translational profile of RPL35A (ENSG00000182899, TGFβ-treated fibroblasts): + (+ = 0.9 to 1.5)
- renormalizing the translational profile of LENG9 (ENSG00000182909, TGFβ-treated fibroblasts): − (− = <0.9)
- renormalizing the translational profile of C22orf32 (ENSG00000183172, TGFβ-treated fibroblasts): − (− = <0.9)
- renormalizing the translational profile of NPW (ENSG00000183971, TGFβ-treated fibroblasts): − (− = <0.9)
- renormalizing the translational profile of PDE4B (ENSG00000184588, TGFβ-treated fibroblasts): − (− = <0.9)
- renormalizing the translational profile of ROBO2 (ENSG00000185008, TGFβ-treated fibroblasts): − (− = <0.9)
- renormalizing the translational profile of PTCH1 (ENSG00000185920, TGFβ-treated fibroblasts): − (− = <0.9)
- renormalizing the translational profile of POLR1D (ENSG00000186184, TGFβ-treated fibroblasts): − (− = <0.9)
- renormalizing the translational profile of DYNC2H1 (ENSG00000187240, TGFβ-treated fibroblasts): − (− = <0.9)
- renormalizing the translational profile of RPL14 (ENSG00000188846, TGFβ-treated fibroblasts): − (− = <0.9)
- renormalizing the translational profile of LRRK2 (ENSG00000188906, TGFβ-treated fibroblasts): − (− = <0.9)
- renormalizing the translational profile of NACA (ENSG00000196531, TGFβ-treated fibroblasts): − (− = <0.9)
- renormalizing the translational profile of LAMB3 (ENSG00000196878, TGFβ-treated fibroblasts): − (− = <0.9)
- renormalizing the translational profile of PCBP2 (ENSG00000197111, TGFβ-treated fibroblasts): − (− = <0.9)
- renormalizing the translational profile of MAP3K5 (ENSG00000197442, TGFβ-treated fibroblasts): − (− = <0.9)
- renormalizing the translational profile of RPL37A (ENSG00000197756, TGFβ-treated fibroblasts): − (− = <0.9)
- renormalizing the translational profile of RPL12 (ENSG00000197958, TGFβ-treated fibroblasts): − (− = <0.9)
- renormalizing the translational profile of LPAR1 (ENSG00000198121, TGFβ-treated fibroblasts): − (− = <0.9)
- renormalizing the translational profile of RPL23A (ENSG00000198242, TGFβ-treated fibroblasts): − (− = <0.9)
- renormalizing the translational profile of PLN (ENSG00000198523, TGFβ-treated fibroblasts): − (− = <0.9)
- renormalizing the translational profile of RPL10A (ENSG00000198755, TGFβ-treated fibroblasts): − (− = <0.9)
- renormalizing the translational profile of CES1 (ENSG00000198848, TGFβ-treated fibroblasts): − (− = <0.9)
- renormalizing the translational profile of RPL39 (ENSG00000198918, TGFβ-treated fibroblasts): − (− = <0.9)
- renormalizing the translational profile of CARD16 (ENSG00000204397, TGFβ-treated fibroblasts): − (− = <0.9)
- renormalizing the translational profile of GNB2L1 (ENSG00000204628, TGFβ-treated fibroblasts): + (+ = 0.9 to 1.5)
- renormalizing the translational profile of RPL17 (ENSG00000215472, TGFβ-treated fibroblasts): − (− = <0.9)
- renormalizing the translational profile of RPL41 (ENSG00000229117, TGFβ-treated fibroblasts): − (− = <0.9)
- renormalizing the translational profile of ARPC1A (ENSG00000241685, TGFβ-treated fibroblasts): − (− = <0.9)
- renormalizing the translational profile of CHCHD10 (ENSG00000250479, TGFβ-treated fibroblasts): +++ (+++ = >2.0)
- renormalizing the translational profile of EEF1G (ENSG00000254772, TGFβ-treated fibroblasts): − (− = <0.9)
- number of the 141 eIF2 pathway genes that moved toward normal (TGFβ and PP242, of 141 genes, FIG. 8): 104
- number of the 12 eIF2 signaling pathway genes that moved toward the untransformed, normal state (TGFβ and PP242, out of 12 genes, FIG. 7): 11
- effect in renormalizing the translational profile of the gene (gene RPS2 (ENSG00000140988), TGFβ-treated fibroblasts): − (− = <0.9)
- effect in renormalizing the translational profile of the gene (gene RPS3 (ENSG00000149273), TGFβ-treated fibroblasts): − (− = <0.9)
- effect in renormalizing the translational profile of the gene (gene RPS3A (ENSG00000145425), TGFβ-treated fibroblasts): − (− = <0.9)
- effect in renormalizing the translational profile of the gene (gene RPS4X (ENSG00000198034), TGFβ-treated fibroblasts): − (− = <0.9)
- effect in renormalizing the translational profile of the gene (gene RPS4Y1 (ENSG00000129824), TGFβ-treated fibroblasts): − (− = <0.9)
- effect in renormalizing the translational profile of the gene (gene RPS5 (ENSG00000083845), TGFβ-treated fibroblasts): − (− = <0.9)
- effect in renormalizing the translational profile of the gene (gene RPS6 (ENSG00000137154), TGFβ-treated fibroblasts): − (− = <0.9)
